Experimental data: the supplement of paper PMC8671470

How the values were obtained:
Test in all cases: cell viability (% survival relative to DMSO control); higher = less cytotoxic
Conditions in all cases: 72 h
BV-173 = test system: BV-173
Description: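 8x8 drug-combination matrices (0–5000 nM; rosiglitazone and lestaurtinib 0–1000 nM) were run in BV-173 cells for 72 h with CellTiter-Glo read-out. Survival is normalised to DMSO and 10 µM bortezomib and clipped at 100%.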

HL-60 = test system: HL-60
Description: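 8x8 drug-combination matrices (0-5000 nM; rosiglitazone and lestaurtinib 0-1000 nM) were run in HL-60 cells for 72 h with a CellTiter-Glo read-out. Survival is normalised to DMSO and 10 µM bortezomib and clipped at 100%. Bliss synergy was analysed in SynergyFinder.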

Mono-Mac-6 = test system: Mono-Mac-6
Description: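 8x8 drug-combination matrices (0–5000 nM; rosiglitazone and lestaurtinib 0–1000 nM) were run in Mono-Mac-6 cells for 72 h with CellTiter-Glo read-out. Survival is normalised to DMSO and 10 µM bortezomib and clipped at 100%.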

CCn1c(=Cc2cccc[n+]2CC)sc(=C2Sc3ccccc3N2C)c1=O [MKT 077] + CN(C)CCNC(=O)c1cccn2c(=O)c3cc4ccccc4cc3nc12 [Bmh-21]
cell viability [%]
Conditions | drug1 concentration 5 nM | drug1 concentration 10 nM | drug1 concentration 50 nM | drug1 concentration 100 nM | drug1 concentration 500 nM | drug1 concentration 1000 nM | drug1 concentration 5000 nM
BV-173, drug2 concentration 5 nM | 90.2 | > 100 | > 100 | > 100 | 82.7 | > 100 | 93.6
BV-173, drug2 concentration 10 nM | > 100 | > 100 | > 100 | > 100 | > 100 | > 100 | > 100
BV-173, drug2 concentration 50 nM | > 100 | > 100 | 86 | 90.4 | 86.5 | > 100 | > 100
BV-173, drug2 concentration 100 nM | > 100 | 96.7 | 94.6 | > 100 | 90.9 | > 100 | > 100
BV-173, drug2 concentration 500 nM | 4.65 | 59.5 | 45.4 | 34.8 | 46.4 | 11.4 | 49.9
BV-173, drug2 concentration 1000 nM | 0.56 | 28.5 | 1.73 | 66.5 | 1.33 | 2.69 | 6.83
BV-173, drug2 concentration 5000 nM | 0.22 | 1.2 | -0.65 | 0.37 | -0.07 | 0.15 | 6.67
HL-60, drug2 concentration 5 nM | 72.8 | > 100 | > 100 | > 100 | > 100 | > 100 | 82
HL-60, drug2 concentration 10 nM | 97.1 | 92.4 | > 100 | > 100 | 62.4 | > 100 | > 100
HL-60, drug2 concentration 50 nM | > 100 | 89.5 | > 100 | > 100 | 87.1 | > 100 | > 100
HL-60, drug2 concentration 100 nM | > 100 | > 100 | > 100 | > 100 | 85.5 | > 100 | > 100
HL-60, drug2 concentration 500 nM | 58.2 | 61.1 | 40.5 | 44.1 | 86 | 41.3 | 84.4
HL-60, drug2 concentration 1000 nM | 31.2 | 58.3 | 48.1 | 66.9 | 18.6 | 34.4 | 54.3
HL-60, drug2 concentration 5000 nM | 16.4 | 30.1 | -2.48 | 43.2 | 29.9 | 7.94 | 52
Mono-Mac-6, drug2 concentration 5 nM | 93.5 | > 100 | 99.6 | 94.6 | 99.8 | > 100 | > 100
Mono-Mac-6, drug2 concentration 10 nM | > 100 | > 100 | > 100 | 90.1 | > 100 | 78.2 | > 100
Mono-Mac-6, drug2 concentration 50 nM | 95.8 | 86.2 | 82.7 | > 100 | 87.1 | > 100 | 99
Mono-Mac-6, drug2 concentration 100 nM | 91.6 | > 100 | > 100 | 99.7 | > 100 | > 100 | > 100
Mono-Mac-6, drug2 concentration 500 nM | 90.4 | 93.3 | 82.1 | 87.7 | 84.3 | 62.8 | 73.5
Mono-Mac-6, drug2 concentration 1000 nM | 76.7 | 77.5 | > 100 | 72.8 | 76.2 | 74.1 | 56.9
Mono-Mac-6, drug2 concentration 5000 nM | 46 | 58.2 | 59.9 | 64.1 | 65.1 | 58.6 | 24.6
